Data taken from patent US9873659B2, “Solutions of trialkali metal salts of MGDA with an excess of L-enantiomer, their manufacture and use” (BASF SE, priority 2014, dated 2018).

Tests used:
[1] = room temperature; colder solutions may lead to precipitation; cited from earlier work
[2] = Solubility experiments: concentrated aqueous solutions stored and checked for crystallization or precipitation; format: physicochemical; settings: for sign of crystallization or precipitation on storage: aqueous solution, 90 days at 20° C.; for solids content of the concentrated aqueous solution that stayed free of crystallization or precipitation: concentrated by evaporation of water at 70° C., cooled to ambient temperature, stable 90 days at 20° C.
Procedure: In each case, the solubility refers to MGDA without hydrate water.
It was allowed to cool down to ambient temperature.
The aqueous solution of MGDA-K2.35Na0.65 obtained according to I.4 was concentrated by evaporation of a part of the water at 70° C. until the solids content was 65% by weight. It was allowed to cool down to ambient temperature.

Row | Compound | concentration of aqueous solution that can be made and stored [1] | sign of crystallization or precipitation on storage ([2]; solids content 64.5% by weight) | solids content of the concentrated aqueous solution that stayed free of crystallization or precipitation [2] [% by weight] | sign of crystallization or precipitation on storage ([2]; solids content 61.1% by weight) | sign of crystallization or precipitation on storage ([2]; solids content 65% by weight)
1 | CC(C(=O)[O-])N(CC(=O)[O-])CC(=O)[O-].[Na+].[Na+].[Na+] (racemic) [racemic MGDA trisodium salt] | about 40 % by weight | – | – | – | –
2 | MGDA-K2.35Na0.65 [MGDA-K2.35Na0.65 obtained according to I.2] | – | did not show any sign of crystallization or precipitation | 64.5 | – | –
3 | MGDA-K2.35Na0.65 [MGDA-K2.35Na0.65 obtained according to I.3] | – | – | 61.1 | did not show any sign of crystallization or precipitation | –
4 | MGDA-K2.35Na0.65 [MGDA-K2.35Na0.65 obtained according to I.4] | – | – | 65 | – | did not show any sign of crystallization or precipitation
